Test results as given in patent publication US20230192676A1, “Heterocyclic Amides as Kinase Inhibitors” (GLAXOSMITHKLINE INTELLECTUAL PROPERTY DEVELOPMENT LIMITED, priority 2017, published 2023).

Test system: U937 cells
Assay: necroptosis assay in human monocytic leukemia U937 cells (Cell Titer-Glo ATP viability readout)
Assay type: cell-based
Conditions: U-937, viability by cellular ATP (Cell Titer-Glo), values approximate, read-out: pIC50, inhibition of necrosis in U937 cells (converted)
Procedure: The efficacy of RIP1 inhibitors can be tested in […] in vitro using a human monocytic leukemia U937 in a necroptosis assay. As determined using the method described in S. He et al., Cell, 137(6):1100-1111 (2009) and International Patent Appln. No. PCT/IB2014/059004, now, International Patent Appln. Pub.
Viability was measured by quantitating cellular levels of ATP using the Cell Titer-Glo kit. All data are means±standard deviation of the mean.

SMILES	IC50 [nM]
NC(=O)c1cc(N2CC[C@H](C(=O)N3OCC[C@@H]3c3cc(F)cc(F)c3)[C@H](F)C2)ncn1 [Example 26, 6-((3S,4R)-4-((R)-3-(3,5-difluorophenyl)isoxazolidine-2-carbonyl)-3-fluoropiperidin-1-yl)pyrimidine-4-carboxamide]	1 to 100
CNC(=O)c1cc(N2CCC(C(=O)N3OCC[C@H]3c3cc(F)cc(F)c3)CC2)ncn1 [Example 9, (S)-6-(4-(3-(3,5-difluorophenyl)isoxazolidine-2-carbonyl)piperidin-1-yl)-N-methylpyrimidine-4-carboxamide]	1 to 100
Cc1nnc(N2CCC(C(=O)N3OCC[C@H]3c3cc(F)cc(F)c3)CC2)o1 [Example 5, (S)-(3-(3,5-difluorophenyl)isoxazolidin-2-yl)(1-(5-methyl-1,3,4-oxadiazol-2-yl)piperidin-4-yl)methanone]	1 to 100
CNC(=O)c1cc(N2CC[C@@H](C(=O)N3OCC[C@@H]3c3cc(F)cc(F)c3)[C@@H](F)C2)ncn1 [Example 32, 6-((3R,4S)-4-((R)-3-(3,5-difluorophenyl)isoxazolidine-2-carbonyl)-3-fluoropiperidin-1-yl)-N-methylpyrimidine-4-carboxamide]	1 to 100
Cc1nnc(N2CC[C@@H](C(=O)N3OCC[C@@H]3c3cc(F)cc(F)c3)[C@@H](F)C2)o1 [Example 18, ((R)-3-(3,5-difluorophenyl)isoxazolidin-2-yl)((3R,4S)-3-fluoro-1-(5-methyl-1,3,4-oxadiazol-2-yl)piperidin-4-yl)methanone]	1 to 100
CN(C)C(=O)c1cc(N2CC[C@H](C(=O)N3OCC[C@H]3c3cc(F)cc(F)c3)[C@H](F)C2)ncn1 [Example 35, 6-((3S,4R)-4-((S)-3-(3,5-difluorophenyl)isoxazolidine-2-carbonyl)-3-fluoropiperidin-1-yl)-N,N-dimethylpyrimidine-4-carboxamide]	1 to 100
CC(=O)N1CCC(C(=O)N2OCC[C@H]2c2cc(F)cc(F)c2)CC1 [Example 2, (S)-1-(4-(3-(3,5-difluorophenyl)isoxazolidine-2-carbonyl)piperidin-1-yl)ethan-1-one]	1 to 100
N#Cc1cc(N2CCC(C(=O)N3OCC[C@H]3c3cc(F)cc(F)c3)CC2)ncn1 [Example 8, (S)-6-(4-(3-(3,5-difluorophenyl)isoxazolidine-2-carbonyl)piperidin-1-yl)pyrimidine-4-carbonitrile]	1 to 100
C[S@@+]([O-])c1cc(N2CC[C@H](C(=O)N3OCC[C@@H]3c3cc(F)cc(F)c3)[C@H](F)C2)ncn1 [Example 44, ((R)-3-(3,5-difluorophenyl)isoxazolidin-2-yl)((3S,4R)-3-fluoro-1-(6-((R)-methylsulfinyl)pyrimidin-4-yl)piperidin-4-yl)methanone]	1 to 100
CNC(=O)c1cc(N2CC[C@H](C(=O)N3OCC[C@@H]3c3cc(F)cc(F)c3)[C@H](F)C2)ncn1 [Example 30, 6-((3S,4R)-4-((R)-3-(3,5-difluorophenyl)isoxazolidine-2-carbonyl)-3-fluoropiperidin-1-yl)-N-methylpyrimidine-4-carboxamide]	1 to 100
C[S@+]([O-])c1cc(N2CC[C@@H](C(=O)N3OCC[C@@H]3c3cc(F)cc(F)c3)[C@@H](F)C2)ncn1 [Example 46, ((R)-3-(3,5-difluorophenyl)isoxazolidin-2-yl)((3R,4S)-3-fluoro-1-(6-((S)-methylsulfinyl)pyrimidin-4-yl)piperidin-4-yl)methanone]	1 to 100
CN(C)C(=O)c1cc(N2CC[C@H](C(=O)N3OCC[C@@H]3c3cc(F)cc(F)c3)[C@H](F)C2)ncn1 [Example 34, 6-((3S,4R)-4-((R)-3-(3,5-difluorophenyl)isoxazolidine-2-carbonyl)-3-fluoropiperidin-1-yl)-N,N-dimethylpyrimidine-4-carboxamide]	1 to 100
O=C([C@H]1CCN(c2nnco2)C[C@H]1F)N1OCC[C@@H]1c1cc(F)cc(F)c1 [Example 22, ((R)-3-(3,5-difluorophenyl)isoxazolidin-2-yl)((3S,4R)-3-fluoro-1-(1,3,4-oxadiazol-2-yl)piperidin-4-yl)methanone]	1 to 100
Cc1nnc(N2CC[C@H](C(=O)N3OCC[C@@H]3c3cc(F)cc(F)c3)[C@H](F)C2)o1 [Example 16, ((R)-3-(3,5-difluorophenyl)isoxazolidin-2-yl)((3S,4R)-3-fluoro-1-(5-methyl-1,3,4-oxadiazol-2-yl)piperidin-4-yl)methanone]	1 to 100
NC(=O)c1cc(N2CCC(C(=O)N3OCC[C@H]3c3cc(F)cc(F)c3)CC2)ncn1 [Example 4, (S)-6-(4-(3-(3,5-difluorophenyl)isoxazolidine-2-carbonyl)piperidin-1-yl)pyrimidine-4-carboxamide]	1 to 100
CN(C)C(=O)c1cc(N2CCC(C(=O)N3OCC[C@H]3c3cc(F)cc(F)c3)CC2)ncn1 [Example 10, (S)-6-(4-(3-(3,5-difluorophenyl)isoxazolidine-2-carbonyl)piperidin-1-yl)-N,N-dimethylpyrimidine-4-carboxamide]	1 to 100
